Columns and labels:
[1] = test system: HL-60(TB) (Leukemia); experiment: NCI one dose, HL-60(TB); assay type: cell-based, human; conditions: 1.00E-5 Molar one dose
Protocol: (§1) 3.4. Cell Proliferation Assay
(§2) Selected compounds were tested on a panel of 60 human cancer cell lines at the National Cancer Institute (NCI), Germantown, MD, USA. The cytotoxicity studies were conducted using a 48 h exposure protocol using the sulfo-rhodamine B assay.

[2] = test system: NCI-H226 (Non-Small Cell Lung Cancer); experiment: NCI one dose, NCI-H226; assay type: cell-based, human; conditions: NCI-H226, 1.00E-5 Molar one dose
Protocol: as §1, §2

Row | SMILES | Growth Percent [1] [%] | Growth Percent [2] [%]
1 | COc1ccc(CNC(=O)[C@@H]2CS[C@H]3c4ccccc4C(=O)N23)cc1 [4aF] | 97.30 | 101.53
2 | COc1cc(CNC(=O)[C@@H]2CS[C@H]3c4ccccc4C(=O)N23)cc(OC)c1OC [4aJ] | 96.47 | 97.62
3 | O=C(NCc1cccc(C(F)(F)F)c1)[C@@H]1CS[C@H]2c3ccccc3C(=O)N12 [4aD] | 96.47 | 100.68
4 | O=C(NCc1ccc(Cl)cc1Cl)[C@@H]1CS[C@H]2c3ccccc3C(=O)N12 [4aH] | 93.16 | 95.83
5 | O=C(NCc1ccccc1C(F)(F)F)[C@@H]1CS[C@H]2c3ccccc3C(=O)N12 [4aC] | 101.08 | 95.46
6 | O=C(NCc1ccccc1)[C@@H]1CS[C@H]2c3ccccc3C(=O)N12 [4aA] | 102.43 | 86.94
